For data set [1], the system named is S. cerevisiae EG103 (SOD-WT). In words: Yeast survival assay, EG103 (SOD-WT). The format is cell-based, Saccharomyces cerevisiae. The settings on record: STAT cells, 1 h in PBS 30°C. On the procedure: Media, solutions and buffers were prepared according to Burke et al.. YPD medium (0.5% yeast extract, 2% peptone, 2% glucose) was used for routine growth. Synthetic medium SC (0.67% yeast nitrogen base, 0.1% ammonium sulfate, 2% glucose) supplemented with the appropriate amino acids and bases ([…]) was used for the detection of mutations.
Stationary phase (STAT) cultures were obtained by inoculation of a single colony into liquid YPD. We chose to work in the stationary phase of growth because this resembles most cells of multicellular organisms in important aspects: (i) most energy comes from mitochondrial respiration; (ii) the cells have left the active cell cycle and have entered the Go phase; and (iii) damage accumulates over time.
STAT cells (1 × 10^8 cells/mL) were exposed to TTHL (10–500 μg/mL) and incubated under growth conditions for 1 h in PBS at 30°C. Cells were then washed and treated with H2O2 (5 mM) in PBS for another hour. Suitable aliquots were plated in triplicate on solid YPD (2–3 days, 30°C) and colony-forming units were counted. Sensitivity was expressed as a percentage of survival in relation to the negative control (solvent).

For the next data set, the system named is T24 (bladder cancer). In words: XTT cell viability assay, T24. The format is cell-based, human. The settings on record: for IC50: Homo sapiens, XTT. On the procedure:
The human cell lines MCF-7 (breast adenocarcinoma), HepG2 (hepatoma), T24 (bladder cancer), CACO-2 (colorectal adenocarcinoma) and MRC5 (lung normal fibroblast) were obtained from the Rio de Janeiro Cell Bank (Rio de Janeiro, RJ, Brazil). The HCT116 cell (colorectal carcinoma), and HT29 cell (colorectal adenocarcinoma) were kindly provided by Dr. Annette K. Larsen (Institut National de la Santé et de la Recherche Médicale - INSERM, Paris, França). All cell lines except MCF-7 were grown in DMEM supplemented with 10% or 20% (for CACO-2) FBS, 100 units.mL^-1 penicillin and 100 μg.mL^-1 streptomycin at 37°C in a humidified atmosphere of 5% CO2. MCF-7 cells were maintained in RPMI-1640 supplemented with 20% FBS at the same conditions described above.
The cytotoxic potential of the TTHL was evaluated by the XTT assay in human tumor cell lines as well as in MRC5 normal fibroblasts. Cells (1 × 10^4 cells) were seeded on 96-well plates in growth medium and incubated overnight. Afterwards, TTHL (0.5, 1.0, 2.5, 5.0, and 10 μg/mL) was added to each well and incubated for 24, 48, 72, and 120 h. Mitoxantrone, a cytostatic anthracenedione that intercalates in DNA and increases the incidence of double-strand breaks by stabilizing the cleavable complex of topoisomerase II and DNA, was used as positive control. At the end of each treatment, cell viability was assessed according to the manufacturer’s instructions. Briefly, after discarding the medium, 1 mL of XTT labeling mixture was added to the cells and incubated for 2 h at 37°C. Absorbance was measured with a SpectraMax reader (Bio-Rad, USA) at a test wavelength of 492 nm (A492) and a reference wavelength of 690 nm (A690). The final result corresponds to A492-A690. The absorbance of negative control cells was set as 100% viability, and the values for treated cells were calculated as a percentage of the control.
The IC20, IC50, and IC80 values and their 95% confidence intervals (CI 95%) were obtained by nonlinear regression using GraphPad Prism v5 program (Intuitive Software for Science, San Diego, CA, USA). Selective index (SI) was calculated by IC50 in MRC5 cells/IC50 in tumoral cells. All experiments were independently repeated at least three times, with triplicate samples for each treatment. Results are expressed as means ± standard deviation (SD). Data were analyzed by one-way analysis of variance (ANOVA), and means were compared using Tukey test, with P ≤ 0.05 considered as statistically significant.
For orientation: Tetrazolium dyes change colour on reduction, which living cells bring about.

A further data set concerns MCF-7 cells. As to the kind of experiment: Alkaline comet assay. The settings on record: MCF-7, 24 h. It counts as cell-based, human. On the procedure: Cells (2 × 10^5 cells/mL) were seeded on 6-well tissue culture plates, and grown for 1 day up to 70–80% confluence before treatment with the test substance. The TTHL was added to medium with FBS to obtain the different concentrations, and cells were treated at 37°C for 24 h in humidified atmosphere containing 5% CO2.
The alkaline comet assay was performed as previously described. Briefly, 10 μL of cell suspension (1 × 10^4 cells) treated with TTHL were mixed with 90 μL LMP agarose, spread on a normal agarose precoated microscope slide, and placed at 4°C for 5 min to allow for solidification. Cells were lysed in high concentration of salt and detergent (2.5 M NaCl, 100 mM Na2EDTA, 10 mM Tris with 1% Triton X-100 and 10% DMSO freshly added) for 2 h. Slides were removed from lysing solution and washed three times with PBS. Subsequently, cells were exposed to alkali conditions (300 mM NaOH/1 mM Na2EDTA, pH >13, 30 min, 4°C) to allow DNA unwinding and expression of alkali-labile sites. Electrophoresis was conducted for 25 min at 25 V and 300 mA ([…]). After electrophoresis, the slides were neutralized and silver stained. One hundred cells were scored visually according to the tail length and the amount of DNA present in the tail. Each comet was given an arbitrary value of 0–4 (0, undamaged; 4, maximally damaged), as described by Collins et al.. Damage score was thus assigned to each sample and can range from 0 (completely undamaged: 100 cells × 0) to 400 (with maximum damage: 100 cells × 4). International guidelines and recommendations for the comet assay consider that visual scoring of comets is a well-validated evaluation method, as it is highly correlated with computer-based image analysis.

In brackets after ≈: the same amount, converted by molar mass.

Consider one compound from publication PMC4129108, “The natural triterpene 3β,6β,16β-trihydroxy-lup-20(29)-ene obtained from the flowers of Combretum leprosum induces apoptosis in MCF-7 breast cancer cells” (BMC Complementary and Alternative Medicine, 2014).

Broadly, the IC50 is the concentration that gives 50% inhibition. Low values mean greater potency, high ones weaker potency. With `C=C(C)[C@@H]1CC[C@@]2(C)[C@H]1[C@H]1CC[C@@H]3[C@@]4(C)CC[C@H](O)C(C)(C)[C@@H]4[C@H](O)C[C@@]3(C)[C@]1(C)C[C@@H]2O` [TTHL, 3β,6β,16β-trihydroxy-lup-20(29)-ene], the “survival (percentage in relation to negative control)” value in data set [1] (TTHL 10 μg/mL) is recorded as 100 ± 2.83%; in data set [1] (TTHL 50 μg/mL), 87.65 ± 5.16 %; in data set [1] (TTHL 100 μg/mL), 79.45 ± 1.91 %; in data set [1] (TTHL 500 μg/mL) it was 67.65 ± 3.04 %. Also, the IC50 is 5.55 ± 0.64 µg/mL (≈ 12.1 µM) with T24 (bladder cancer) (T24, 24 h treatment); 5.2 ± 0.42 µg/mL (≈ 11.3 µM) with T24 (bladder cancer) (T24, 48 h treatment); 1.09 ± 0.14 µg/mL (≈ 2.38 µM) in the data set on T24 (bladder cancer) (T24, 72 h treatment); 0.39 ± 0.1 µg/mL (≈ 0.85 µM) with T24 (bladder cancer) (T24, 120 h treatment). For the same compound, the “Selectivity index (SI)” value with T24 (bladder cancer) (IC50 in MRC5 cells/IC50 in T24, 24 h) is 1.5 X; in the data set on T24 (bladder cancer) (IC50 in MRC5 cells/IC50 in T24, 48 h) it was 1.5 X; in the data set on T24 (bladder cancer) (IC50 in MRC5 cells/IC50 in T24, 72 h), 7 X; in the data set with T24 (bladder cancer) (IC50 in MRC5 cells/IC50 in T24, 120 h), 17 X. Further, the “DNA damage (alkaline comet assay)” value in the data set on MCF-7 cells (TTHL at IC20) was “does not generate DNA-strand breaks”; in the data set on MCF-7 cells (TTHL at IC50) it was “induces signifcant DNA damage”; in the data set with MCF-7 cells (TTHL at IC80), “induces signifcant DNA damage”.
